Experimental data reported in publication PMC3382068 (Bioorganic & medicinal chemistry, 2011).
“Also recorded” adds a separate entry of the source.

Experiments:
hIcmt [1] = molecular target: T1, hIcmt (Homo sapiens, UniProt O60725); experiment: In vitro vapor diffusion methyltransferase assay, inhibition of hIcmt; assay type: biochemical; conditions: for Loss of inhibitory activity as compared to compound 1a: fold; for hIcmt inhibition (in words): 10 μM compound, 25 μM AFC
hIcmt [2] = molecular target: T1, hIcmt; conditions: read-out: IC50 against hIcmt; previously reported; cited from earlier work
[3] = tested on: PC3 prostate cancer cells; conditions: cited from earlier work
[4] = tested on: Ras activation in Jurkat T cells; experiment: GST-RBD pull down assay of active GTP-bound Ras; assay type: cell-based; conditions: 25 μM, 24 h, then anti-CD-3ε stimulation
[5] = tested on: GFP-K-Ras in Jurkat T cells; experiment: Subcellular localization of GFP-K-Ras by fluorescence microscopy; assay type: cell-based; conditions: 0.1 μM, 24 hours
[6] = tested on: Erk phosphorylation in Jurkat T cells; experiment: Signaling assay: anti-CD-3ε dependent Erk phosphorylation; assay type: cell-based; conditions: 25 μM, 24 h, then anti-CD-3ε stimulation
hIcmt [7] = molecular target: T1, hIcmt; experiment: Kinetic mode of inhibition and KI determination

T1 sequence (O60725 whole entry, the tested form may be a part): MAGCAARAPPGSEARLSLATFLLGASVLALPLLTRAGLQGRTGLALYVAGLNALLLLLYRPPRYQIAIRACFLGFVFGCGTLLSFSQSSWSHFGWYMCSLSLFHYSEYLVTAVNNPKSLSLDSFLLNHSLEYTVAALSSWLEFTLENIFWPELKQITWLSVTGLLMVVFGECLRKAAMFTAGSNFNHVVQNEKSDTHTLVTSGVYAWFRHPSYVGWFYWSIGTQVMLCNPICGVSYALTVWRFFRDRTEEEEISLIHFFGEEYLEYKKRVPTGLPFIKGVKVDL

Which “Loss of inhibitory activity as compared to compound 1a” value (hIcmt [1]) does the source give for CC(C)=CCC/C(C)=C/CC/C(C)=C/CSC[C@H](NC(=O)c1ccccc1Sc1ccccc1)C(=O)O [Compound 2d, (R)-2-(2-(phenylthio)benzamido)-3-(((2E,6E)-3,7,11-trimethyldodeca-2,6,10-trien-1-yl)thio)propanoic acid] here?
The value was “roughly four-fold”.

For “anthranilic farnesylcysteine [anthranilic acid analog]”, which IC50 (hIcmt [2]) is on record?
The IC50 was 7.1 µM.

For CCCCCCCCCCCSC[C@H](NC(=O)c1ccccc1Oc1ccccc1)C(=O)O [Compound 21, ((R)-2-(2-phenoxybenzamido)-3-(undecylthio)propanoic acid)], which “hIcmt inhibition (in words)” value (hIcmt [1]) is on record?
Its value is “particularly poor inhibitor of hIcmt”.

With CC(C)=CCC/C(C)=C/CC/C(C)=C/CC/C(C)=C/CSC[C@H](NC(=O)c1ccccc1Oc1ccccc1)C(=O)O [Compound 19, (R)-2-(2-phenoxybenzamido)-3-(((2E,6E,10E)-3,7,11,15-tetramethylhexadeca-2,6,10,14-tetraen-1-yl)thio)propanoic acid] as the compound, how does the “hIcmt inhibition (in words)” value (hIcmt [1]) read?
The value was “significant loss of hIcmt inhibition”.

With CCCCCCCCn1cc(CC(N)=O)c2cc(-c3cccc(C)c3)ccc21 [Cysmethynil] as the compound, how does the “Effect on PC3 prostate cancer cells” value [3] read?
Its value is “induction of autophagic cell death”.

With CC(C)=CCC/C(C)=C/CC/C(C)=C/CSC[C@@H](C(=O)O)N(C)C(=O)c1ccccc1Oc1ccccc1 [Compound 20, (R)-2-(N-methyl-2-phenoxybenzamido)-3-(((2E,6E)-3,7,11-trimethyldodeca-2,6,10-trien-1-yl)thio)propanoic acid] as the compound, how does the “hIcmt inhibition (in words)” value (hIcmt [1]) read?
The value was “equivalent to our previous lead, 1a, in terms of percent inhibition”.

With CC(C)=CC/C(=C/CSC[C@H](NC(=O)c1ccccc1Oc1ccccc1)C(=O)O)CCc1ccc(-c2ccccc2)cc1 [Compound 1b, N-2-Phenoxybenzoyl-S-3-(3-methyl-but-2-enyl)-5-(4-biphenyl)pent-2-enyl-L-cysteine] as the compound, how does the Ras activation [4] read?
The Ras activation was “inhibited Ras activation significantly”.

And the “Prevention of GFP-K-Ras membrane localization” value [5]?
The value was “approximately 35%”.

And the “Decrease of Erk activation compared to the control” value [6]?
Its value is “approximately three-fold”.

And the Ki (hIcmt [7])?
The Ki was 0.5 ± 0.07 µM.

What about the Mode of inhibition (hIcmt [7]; AFC varied, inhibitor concentration fixed) of the same compound?
The Mode of inhibition was “mixed-mode inhibition; also recorded: mixed-type inhibition”.

And the α value (hIcmt [7]; mixed-type inhibition, competitive component dominated)?
The α value was “greater than 1”.

For CC(C)=CCC/C(C)=C/CC/C(C)=C/CSC[C@H](NC(=O)c1ccccc1Cc1ccccc1)C(=O)O [Compound 2c, (R)-2-(2-benzylbenzamido)-3-(((2E,6E)-3,7,11-trimethyldodeca-2,6,10-trien-1-yl)thio)propanoic acid], which “Loss of inhibitory activity as compared to compound 1a” value (hIcmt [1]) is on record?
Its value is “roughly four-fold”.
